Legend:
[1] = long-term cell viability assays in vitro, comparison of PRC2 inhibitors; type: cell-based
Description: (§1) Response of Compound 1 treatment relative to other EZH2, dual EZH1 and EZH2, or EED inhibitors was analyzed in vitro and in vivo.

[2] = pharmacokinetics in the ARID1A mutant HT1376 xenograft mouse model; type: in vivo
Description: as §1

[3] = system: ARID1A mutant HT1376 bladder cancer xenografts; experiment: HT1376 xenograft tumor growth inhibition; type: in vivo, mice; conditions: ARID1A mutated HT1376 xenograft, 75 mg/kg QD; for tumor growth inhibition (TGI) compared to vehicle: day 27
Description: Data represented as mean tumor volume+SEM, with n=5 mice per group for all groups except 150 mg/kg, which had n=3. P-values calculated using 2-way ANOVA up to day 30, ns=p>0.05, *p<0.05. […]
Cell line derived xenograft tumor experiments were performed at WuXi AppTec, Shanghi, China. Patient derived xenograft experiments were performed at Crown BioScience Inc., Taicang Jiangsu Province, China, or Champions Oncology, Rockville, MD, US. All the procedures related to animal handling, care and the treatment in the xenograft studies were performed according to the guidelines approved by the Institutional Animal Care and Use Committee (IACUC) of WuXi AppTec or Crown BioScience Inc. following the guidance of the Association for Assessment and Accreditation of Laboratory Animal Care (AAALAC). The mice were kept in individual ventilation cages at constant temperature and humidity with 3-5 animals in each cage. Mice were checked daily for any effects of tumor growth and/or treatments on normal behavior such as mobility, food and water consumption, body weight gain/loss, eye, and any other abnormal effects. […] Animal body weight was monitored regularly as an indirect measurement of toxicity. Supplemented diet was provided after cell inoculation for all groups to help with body weight maintenance. If an animal lost >15% body weight, their treatments were suspended accordingly then resumed when body weight loss returned to <10%.
The HT1376 and HT1197 bladder cancer cell lines and Karpas-422 lymphoma cell line were expanded in vitro under routine subculturing procedures in the medium recommended by the supplier, harvested while in the exponential growth phase, and counted for tumor inoculation. For HT1376 and Karpas-422 studies, female CB17 SCID mice at 6-8 weeks of age were used for study initiation; for the HT1197 study, female Balb/c nude mice at 6-8 weeks of age were used. Each mouse was inoculated subcutaneously in the right flank with tumor cells in 0.2 ml PBS mixed with Matrigel (BD Biosciences); 5×10^6 cells per injection were used for HT1376 and Karpas-422 cell lines and 1×10^7 cells per injection for HT1197 cells. […] Mice undergoing extended dosing holidays due to body weight loss (>10 days, n=2 mice in the 150 mg/kg Compound 1 HT1376 group only), were censored from the study and not included in the data presented.
Tumor size was measured thrice weekly in two dimensions using a caliper, and the volume was expressed in mm3 using the formula: V=0.5a×b2 where a and b are the long and short diameters of the tumor, respectively. TGI was calculated for each group using the formula: TGI (%)=[1−(Ti−T0)/(Vi−V0)]×100; Ti is the average tumor volume of a treatment group on a certain day, T0 is the average tumor volume of the treatment group on the day of treatment start, Vi is the average tumor volume of the vehicle control group on the same day with Ti, and V0 is the average tumor volume of the vehicle group on the day of treatment start.
To further explore the potential dose dependence of Compound 1 on tumor growth inhibition in vivo, HT1376 xenograft studies were carried out using Compound 1 doses from 10 to 150 mg/kg QD orally once daily (PO, QD). […]

[4] = CB17 SCID, mouse, in vivo, 75 mg/kg
[5] = Day 1, 75 mg/kg, HT1376 xenograft mouse, plasma

## COc1cc(C)[nH]c(=O)c1CNC(=O)c1c(C)n([C@H](C)C2CCN(CC(F)(F)F)CC2)c2ccccc12 [CPI-1205]
[1]
  GI50: 574 nM
[2]; [4]
  Cmax: 50800 ng/mL
  T1/2: 1.24 h
  Tmax: 0.50 h
[2]; mouse, in vivo, 75 mg/kg
  AUClast (hg*ng/mL): 59900 hg*ng/mL
[3]
  tumor growth inhibition (TGI) compared to vehicle: 40%

## Cc1ncccc1-c1cnc(NCc2c(F)ccc3c2CCO3)n2cnnc12 [MAK683]
[1]
  GI50: 73 nM
[2]; mouse, in vivo, 75 mg/kg
  AUClast (hg*ng/mL): 13100 hg*ng/mL
  Cmax: 5660 ng/mL
  T1/2: 1.18 h
  Tmax: 1.00 h

## COc1cc(C)[nH]c(=O)c1CN1CCc2c(Cl)cc([C@H](OC)C3COC3)c(Cl)c2C1=O [PF-06821497]
[1]
  GI50: ~5 nM
[2]; mouse, in vivo, 75 mg/kg
  AUClast (hg*ng/mL): 3380 hg*ng/mL
  Cmax: 3740 ng/mL
  T1/2: 1.01 h
  Tmax: 0.50 h
[3]
  tumor growth inhibition (TGI) compared to vehicle: 41%

## CCN(c1cc(-c2ccc(CN3CCOCC3)cc2)cc(C(=O)NCc2c(C)cc(C)[nH]c2=O)c1C)C1CCOCC1 [tazemetostat]
[1]
  GI50: 385 nM
[2]; [5]
  AUClast (hg*ng/mL): 23200 hg*ng/mL
  Cmax: 9530 ng/mL
  T1/2: 1.43 h
  Tmax: 0.50 h
[3]
  tumor growth inhibition (TGI) compared to vehicle: 32%

## Cc1cc(C)c(CNC(=O)c2cc(Cl)c3c(c2C)O[C@@](C)([C@H]2CC[C@H](N(C)C)CC2)O3)c(=O)[nH]1 [valemetostat]
[1]
  GI50: 18 nM
[2]; [5]
  AUClast (hg*ng/mL): 7600 hg*ng/mL
  Cmax: 3090 ng/mL
  T1/2: 3.00 h
  Tmax: 1.33 h
[3]
  tumor volume course during treatment: did not reach full regression
